Assay results reported in ChEMBL document CHEMBL6178009, “Targeted Degradation of BCL6 Using Novel Bifunctional Degraders: A New Therapeutic Strategy for BCL6-Positive Cancers” (ACS Med Chem Lett, 2025).

Columns and labels:
[1] = molecular target: Protein cereblon/B-cell lymphoma 6 protein (Homo sapiens) (UniProt Q96SW2+P41182); test: PROTAC activity at CRBN/N-terminal HiBit-tagged BCL6 in human HT-1080 cells transfected with pLV-UBC-N-HiBiT- BCL6-PGK-puro assessed as degradation of BCL6 by measuring ratio of trough concentration of protein in cell compared to the concentration of protein before the cell contact with compound (Ymin) incubated for 5 hrs by luminescence based NANO-Glo HIBiT lytic detection assay relative to control
[2] = molecular target: Protein cereblon/B-cell lymphoma 6 protein (Homo sapiens, UniProt P41182+Q96SW2); test: PROTAC activity at CRBN/N-terminal HiBit-tagged BCL6 in human HT-1080 cells transfected with pLV-UBC-N-HiBiT- BCL6-PGK-puro assessed as degradation of BCL6 incubated for 5 hrs by luminescence based NANO-Glo HIBiT lytic detection assay; assay type: cell-based

Emin [1] [%] | EC50 [2] [nM] | Compound
30 | ≤ 25 | CNC(=O)COc1cc2cc(Nc3nc(N4CCN(CC5CCN(c6ccc7c(C8CCC(=O)NC8=O)nn(C)c7c6)CC5(F)F)C(C)C4)ncc3Cl)cnc2n(C(C)C)c1=O (configuration not stated)
< 30 | ≤ 25 | CNC(=O)COc1cc2cc(Nc3nc(N4CCC5(CCN(CC6CCN(c7cc8c(cc7F)c(C7CCC(=O)NC7=O)nn8C)CC6)CC5)CC4)ncc3Cl)cnc2n(C)c1=O (configuration not stated)
< 30 | ≤ 25 | CNC(=O)COc1cc2cc(Nc3nc(N4CCC(CN5CCC(c6ccc7c(C8CCC(=O)NC8=O)nn(C)c7c6F)CC5)CC4)ncc3Cl)cc3c2n(c1=O)[C@@H](C)CO3 (some centres not stated)
< 30 | ≤ 25 | CNC(=O)COc1cc2cc(Nc3nc(N4CCC5(CC4)CCN([C@H](C)C4CCN(c6ccc7c(C8CCC(=O)NC8=O)nn(C)c7c6)CC4)CC5)ncc3Cl)cnc2n(C)c1=O (some centres not stated)
< 30 | ≤ 25 | CNC(=O)COc1cc2cc(Nc3nc(N4CC[C@@H](CN5CCN(c6cccc7c(C8CCC(=O)NC8=O)nn(C)c67)CC5)[C@@H](C)C4)ncc3Cl)cc3c2n(c1=O)CCO3 (some centres not stated)
< 30 | ≤ 25 | CNC(=O)COc1cc2cc(Nc3nc(N4CCN(CC5CCN(c6cccc7c(C8CCC(=O)NC8=O)nn(C)c67)CC5)CC4)ncc3Cl)cc3c2n(c1=O)CCO3 (configuration not stated)
